Type in all cases: cell-based, human
One series has as its system H1299 lung cancer cells. Nature of the series: Alamar Blue proliferation assay, H1299. The settings on record: relative to NC miRNA (100%). From the text: (§1) The inventors assessed the therapeutic effect of hsa-miR-126 for lung cancer by using 11 individual lung cancer cell lines. To measure cellular proliferation of lung cancer cells, the following non-small cell lung cancer (NSCLC) cells were used: cells derived from lung adenocarcinoma (A549, H1299, H522, H838, Calu-3, HCC827, HCC2935), cells derived from lung squamous cell carcinoma (H520, H226), cells derived from lung bronchioalveolar carcinoma (H1650), and cells derived from lung large cell carcinoma (H460). Synthetic hsa-miR-126 (Pre-miR™-hsa-miR-126, Ambion cat. no. AM17100) or negative control (NC) miRNA (Pre-miR™ microRNA Precursor Molecule-Negative Control #2; Ambion cat. no. AM17111) was delivered via lipid-based transfection into A549, H1299, H522, H838, Calu-3, HCC827, HCC2935, H520, H1650, and H460 cells, and via electroporation into H226 cells.
(§2) Lipid-based reverse transfections were carried out in triplicate according to a published protocol (Ovcharenko et al., 2005) and the following parameters: Cells (5,000-12,000 per 96 well), 0.1-0.2 μl Lipofectamine™ 2000 (cat. no. 11668-019, Invitrogen Corp., Carlsbad, Calif., USA) in 20 μl OptiMEM (Invitrogen), 30 nM final concentration of miRNA in 100 μl. Electroporation of H226 cells was carried out using the BioRad Gene Pulser Xcell™ instrument (BioRad Laboratories Inc., Hercules, Calif., USA) with the following settings: 5×10^6 cells with 5 μg miRNA in 200 μl OptiMEM (1.6 μM miRNA), square wave pulse at 250 V for 5 ms. Electroporated H226 cells were seeded at 7,000 cells per 96-well in a total volume of 100 μl. All cells except for Calu-3 cells were harvested 72 hours post transfection or electroporation for assessment of cellular proliferation. Calu-3 cells were harvested 10 days post transfection. Proliferation assays were performed using Alamar Blue (Invitrogen) following the manufacturer's instructions. As a control for inhibition of cellular proliferation, siRNA against the motor protein kinesin 11, also known as Eg5, was used. […]

Another series has as its system H460 lung cancer cells. Nature of the series: Alamar Blue proliferation assay, H460. Conditions: for % proliferation: relative to NC miRNA (100%).
Source text: as §1
Lipid-based reverse transfections were carried out in triplicate according to a published protocol (Ovcharenko et al., 2005) and the following parameters: Cells (5,000-12,000 per 96 well), 0.1-0.2 μl Lipofectamine™ 2000 (cat. no. 11668-019, Invitrogen Corp., Carlsbad, Calif., USA) in 20 μl OptiMEM (Invitrogen), 30 nM final concentration of miRNA in 100 μl. Electroporation of H226 cells was carried out using the BioRad Gene Pulser Xcell™ instrument (BioRad Laboratories Inc., Hercules, Calif., USA) with the following settings: 5×10^6 cells with 5 μg miRNA in 200 μl OptiMEM (1.6 μM miRNA), square wave pulse at 250 V for 5 ms. Electroporated H226 cells were seeded at 7,000 cells per 96-well in a total volume of 100 μl. All cells except for Calu-3 cells were harvested 72 hours post transfection or electroporation for assessment of cellular proliferation. Calu-3 cells were harvested 10 days post transfection. Proliferation assays were performed using Alamar Blue (Invitrogen) following the manufacturer's instructions. As a control for inhibition of cellular proliferation, siRNA against the motor protein kinesin 11, also known as Eg5, was used. Eg5 is essential for cellular survival of most eukaryotic cells and a lack thereof leads to reduced cell proliferation and cell death (Weil et al., 2002). siEg5 was used in lipid-based transfection following the same experimental parameters that apply to miRNA. The inventors also used a DNA topoisomerase II inhibitor, etoposide, at a final concentration of 10 μM and 50 μM as an internal standard for the potency of miRNAs. Etoposide is an FDA-approved DNA topoisomerase II inhibitor in the treatment of lung cancer. […] Percent (%) proliferation values from the Alamar Blue assay were normalized to values from cells treated with negative control miRNA. […]
(In general: Resazurin is reduced to fluorescent resorufin, in cell work by metabolically active cells.)

In the next series the test system is H838 lung cancer cells. Description: Alamar Blue proliferation assay, H838. The settings on record: relative to NC miRNA (100%).
Source text: as §1, §2

A further series deals with Calu-3 lung cancer cells. Description: Alamar Blue proliferation assay, Calu-3.
Source text: as §1
Electroporation of H226 cells was carried out using the BioRad Gene Pulser Xcell™ instrument (BioRad Laboratories Inc., Hercules, Calif., USA) with the following settings: 5×10^6 cells with 5 μg miRNA in 200 μl OptiMEM (1.6 μM miRNA), square wave pulse at 250 V for 5 ms. Electroporated H226 cells were seeded at 7,000 cells per 96-well in a total volume of 100 μl. All cells except for Calu-3 cells were harvested 72 hours post transfection or electroporation for assessment of cellular proliferation. Calu-3 cells were harvested 10 days post transfection. Proliferation assays were performed using Alamar Blue (Invitrogen) following the manufacturer's instructions. As a control for inhibition of cellular proliferation, siRNA against the motor protein kinesin 11, also known as Eg5, was used. Eg5 is essential for cellular survival of most eukaryotic cells and a lack thereof leads to reduced cell proliferation and cell death (Weil et al., 2002). siEg5 was used in lipid-based transfection following the same experimental parameters that apply to miRNA. The inventors also used a DNA topoisomerase II inhibitor, etoposide, at a final concentration of 10 μM and 50 μM as an internal standard for the potency of miRNAs. […]

A further series concerns H226 lung cancer cells. Description: Alamar Blue proliferation assay, H226.
Source text: as §1
Lipid-based reverse transfections were carried out in triplicate according to a published protocol (Ovcharenko et al., 2005) and the following parameters: Cells (5,000-12,000 per 96 well), 0.1-0.2 μl Lipofectamine™ 2000 (cat. no. 11668-019, Invitrogen Corp., Carlsbad, Calif., USA) in 20 μl OptiMEM (Invitrogen), 30 nM final concentration of miRNA in 100 μl. […] Electroporated H226 cells were seeded at 7,000 cells per 96-well in a total volume of 100 μl. All cells except for Calu-3 cells were harvested 72 hours post transfection or electroporation for assessment of cellular proliferation. Calu-3 cells were harvested 10 days post transfection. Proliferation assays were performed using Alamar Blue (Invitrogen) following the manufacturer's instructions. As a control for inhibition of cellular proliferation, siRNA against the motor protein kinesin 11, also known as Eg5, was used. Eg5 is essential for cellular survival of most eukaryotic cells and a lack thereof leads to reduced cell proliferation and cell death (Weil et al., 2002). siEg5 was used in lipid-based transfection following the same experimental parameters that apply to miRNA. […]

The text below walks through data of patent US20090131354A1, “miR-126 REGULATED GENES AND PATHWAYS AS TARGETS FOR THERAPEUTIC INTERVENTION” (priority 2007, published 2009).

For “hsa-miR-126 (UCGUACCGUGAGUAAUAAUGC; synthetic pre-miR form, further chemistry not given here) [Synthetic hsa-miR-126 (Pre-miR™-hsa-miR-126, Ambion cat. no. AM17100)]”, the “% proliferation” value in the series on H1299 lung cancer cells (H1299, 30 nM, 72 h) was 89.37%; in the series on H460 lung cancer cells (H460, 30 nM, 72 h), 29.09%; with H838 lung cancer cells (H838, 30 nM, 72 h) it was 74.05%; with Calu-3 lung cancer cells (Calu-3, 30 nM, 10 days, relative to NC miRNA (100%)), 65.05%; with H226 lung cancer cells (H226, 30 nM, electroporation, 72 h, relative to NC miRNA (100%)) it was 92.09%. Moreover, in the series with H460 lung cancer cells (H460, 30 nM), the “reduction of proliferation (maximal inhibitory activity)” value is 71%.
With `COc1cc([C@@H]2c3cc4c(cc3[C@@H](O[C@@H]3O[C@@H]5CO[C@@H](C)O[C@H]5[C@H](O)[C@H]3O)[C@H]3COC(=O)[C@H]23)OCO4)cc(OC)c1O` [etoposide], the “% proliferation” value is 79.65% in the series on H1299 lung cancer cells (H1299, 10 μM); 54.38% in the series with H1299 lung cancer cells (H1299, 50 μM); 32.13% with H460 lung cancer cells (H460, 10 μM); 27.82% with H460 lung cancer cells (H460, 50 μM); 89.71% in the series with H838 lung cancer cells (H838, 30 nM); 36.97% with H838 lung cancer cells (H838, 50 μM). The “% proliferation” value in the series with Calu-3 lung cancer cells (Calu-3, 10 μM, relative to NC miRNA (100%)) is 20.81%; in the series with Calu-3 lung cancer cells (Calu-3, relative to NC miRNA (100%)), 13.53%; with H226 lung cancer cells (H226, 50 μM, relative to NC miRNA (100%)), 9.33%; in the series with H226 lung cancer cells (H226, relative to NC miRNA (100%)), 28.17%.
